Test results taken from US20020004058A1, “Immunomodulating and antiinflammatory agent” (priority 1993, published 2002).

How the values were obtained:
[1] = tested on: anti-TNP antibody production; assay: Production of a TNP-specific antibody (anti-TNP IgM and IgG, ELISA) in mice sensitized with TNP-SRBC; format: in vivo, male BALB/c mice; settings: hypodermic injection four days from sensitization
Procedure: (§1) Trinitrobenzenesulfonic acid (TNBS) was dissolved in a physiological saline solution buffered with phosphoric acid to prepare a solution (40 mg/7.0 ml; pH 7.2) and then 1 ml of sheep red cell pellets was dropped thereinto with stirring. The mixture was allowed to stand at room temperature with stirring for several times under a light-shielding state and washed with a physiological saline solution three times. Then it was centrifuged at 3,000 rpm for five minutes and made into a solution of 5×10^9 cells/ml using a physiological saline solution.
TNP-SRBC (10^9 cells) was intraperitoneally administered to male BALB/c mice of six to eight weeks age and the anti-TNP antibody in serum was measured by an enzymatic immunoassay (ELISA) using a dinitrophenyl-bovine serum albumin (DNP-BSA).
(§2) The above-mentioned test system was used for checking the action of: (a) the histamine-added mouse gamma-globulin (150 mg/kg/day) (the product of the present invention), (b) cyclosporin A (100 mg/kg/day), (c) cyclophosphamide (100 mg/kg/day), (d) prednisolone ([…]) and (e) levamizole (5 mg/kg/day) towards the anti-TNP antibody production and to the TNP-specific DTH reaction. The drugs were administered by hypodermic injection four days from the sensitization with TNP-SRBC.

[2] = tested on: TNP-specific DTH reaction; assay: TNP-specific DTH reaction (paw swelling) in mice sensitized with TNP-SRBC; format: in vivo, male BALB/c mice; settings: for Swelling in Paws After 24 Hrs.: difference right/left paw 24 hours after TNB induction on day 14; for Swelling in Paws After 24 Hrs. / Swelling in Paws After 48 Hrs.: drugs by hypodermic injection four days from sensitization; for Swelling in Paws After 48 Hrs.: difference right/left paw 48 hours after TNB induction on day 14; for action to the delayed type hypersensitivity (DTH), in words: hypodermic injection four days from sensitization
Procedure: as §1
The mice were sensitized with TNP-SRBC as described in paragraph (2) above. On the 14th day, 0.025 ml of TNB (4.7 mg/ml) was injected into the right hind paw to induce a TNP-specific DTH reaction. After 24 hours and 48 hours from the induction, the thickness of both paws was measured using a dial gauge. The difference in the thickness between the right and left paws was expressed as the intensity of the DTH reaction. […] This measuring system for the DTH reaction can be subjected to further tests using the same mice as in the case of the antibody production system of paragraph (2) above.
as §2

[3] = tested on: eosinophils exudated to peritoneum; assay: Hypereosinophilic model induced by ragweed pollen antigen; format: in vivo, female BALB/c mice
Procedure: A ragweed pollen extract (which was diluted to an extent of 1,000 times using a physiological saline solution) was hypodermically injected into female BALB/c mice of six to eight weeks age for sensitization at the dose of 0.1 ml on the initiation day and on the first day and 0.2 ml on the sixth, eighth and fourteenth days. On the twentieth day, 0.2 ml of a 1,000 times diluted ragweed antigen was intraperitoneally injected into the mice to induce the reaction. On the 24th hour after the induction, the peritoneal exudate cells were recovered and subjected to a Giemsa staining and the total cell numbers, number of eosinophils, number of neutrophils and number of mononuclear cells were counted. As a result, the number of the eosinophils peaked 24 hours after the induction. […] The above-mentioned hypereosinophilic models were used for checking the action towards the hypereosinophilicity by a hypodermic injection of the product of the present invention. Thus, histamine-added mouse gamma-globulin, at a dose of 3 mg/mouse/day twice a week for three weeks was administered until the induced day. Further tests were conducted by administering the corresponding amount of each of histamine (dihydrochloride) and mouse gamma-globulin which are the constituting components of the histamine-added mouse gamma-globulin.

[4] = tested on: eosinophils exudated to peritoneum; assay: Hypereosinophilic model induced by platelet activating factor (PAF); format: in vivo, female BALB/c mice
Procedure: A PAF (5 micrograms/200 microliters) was intraperitoneally injected into female BALB/c mice of six to eight weeks age to induce the reaction. After 24 hours from the induction, the peritoneal exudate cells were recovered and the number of the eosinophils were counted.

Compound | action upon anti-TNP IgG antibody production (FIG. 2), in words [1] | action upon anti-TNP IgM antibody production (FIG. 1), in words [1] | Swelling in Paws After 24 Hrs. [2] | Swelling in Paws After 48 Hrs. [2] | action to the delayed type hypersensitivity (DTH), in words [2] | Number of Eosinophils Exudated to Peritoneum ([3]; ragweed antigen induced, 24 h after induction, product 3 mg/mouse/day s.c. twice a week for three weeks, components in corresponding amount, cyclosporin A 100 mg/kg/day three days) | suppression of eosinophil exudation into peritoneum, ragweed pollen antigen model, in words ([3]; twice a week for three weeks until the induced day) | Number of Exudated Eosinophils to Peritoneum ([4]; PAF 5 micrograms i.p., 24 hours after induction) | suppressive action upon hypereosinophilicity induced by PAF, in words ([4]; same manner of administration as ragweed model)
O=P1(N(CCCl)CCCl)NCCCO1 (stereo not shown) [Cyclophosphamide, cyclophosphamide] | significantly suppressed | significantly suppressed | 13.3 ± 2.1 ×10^−2 mm | 15.8 ± 2.4 ×10^−2 mm | clear suppressive actions | – | – | – | –
Cl.Cl.NCCc1c[nH]cn1 [Histamine, histamine (dihydrochloride)] | – | – | – | – | – | 3.4 ± 0.6 ×10^5 cells | not observed | 2.2 ± 0.8 ×10^5 cells | not observed
c1ccc([C@H]2CN3CCSC3=N2)cc1 [Lavamizole, levamizole] | did not significantly affect | did not significantly affect | 40.0 ± 6.5 ×10^−2 mm | 20.0 ± 5.0 ×10^−2 mm | no significant effect | – | – | – | –
C[C@]12C=CC(=O)C=C1CC[C@@H]1[C@@H]2[C@@H](O)C[C@@]2(C)[C@H]1CC[C@]2(O)C(=O)CO [Prednisolone, prednisolone] | did not significantly affect | did not significantly affect | 30.0 ± 5.6 ×10^−2 mm | 8.3 ± 3.3 ×10^−2 mm | weak suppressive action | – | – | – | –
